Source: patent US10758534B2 (Vertex Pharmaceuticals Incorporated, priority 2014, dated 2020)

molecular target: T1, F508del (Homo sapiens, UniProt P13569, DEL508-508); experiment: Protocol 2: FRET membrane potential optical assay (VIPR), identification of correction compounds; type: cell-based; conditions: F508del CFTR modulator activity; compounds of Table 1; read-out: EC30
T1 construct: expressed in transfected cells
How it was run: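 Corrector readout: membrane-potential FRET (CC2-DMPE donor, DiSBAC2(3) acceptor) on VIPR II after Cl⁻-free gluconate bath with 10 μM forskolin and 20 μM genistein. Before this, F508del-expressing NIH3T3 cells were exposed to test compound for 16 h at 37 °C without serum; 27 °C incubation served as temperature-correction control.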

T1 sequence (P13569 with tags, fused parts or gaps DEL508-508): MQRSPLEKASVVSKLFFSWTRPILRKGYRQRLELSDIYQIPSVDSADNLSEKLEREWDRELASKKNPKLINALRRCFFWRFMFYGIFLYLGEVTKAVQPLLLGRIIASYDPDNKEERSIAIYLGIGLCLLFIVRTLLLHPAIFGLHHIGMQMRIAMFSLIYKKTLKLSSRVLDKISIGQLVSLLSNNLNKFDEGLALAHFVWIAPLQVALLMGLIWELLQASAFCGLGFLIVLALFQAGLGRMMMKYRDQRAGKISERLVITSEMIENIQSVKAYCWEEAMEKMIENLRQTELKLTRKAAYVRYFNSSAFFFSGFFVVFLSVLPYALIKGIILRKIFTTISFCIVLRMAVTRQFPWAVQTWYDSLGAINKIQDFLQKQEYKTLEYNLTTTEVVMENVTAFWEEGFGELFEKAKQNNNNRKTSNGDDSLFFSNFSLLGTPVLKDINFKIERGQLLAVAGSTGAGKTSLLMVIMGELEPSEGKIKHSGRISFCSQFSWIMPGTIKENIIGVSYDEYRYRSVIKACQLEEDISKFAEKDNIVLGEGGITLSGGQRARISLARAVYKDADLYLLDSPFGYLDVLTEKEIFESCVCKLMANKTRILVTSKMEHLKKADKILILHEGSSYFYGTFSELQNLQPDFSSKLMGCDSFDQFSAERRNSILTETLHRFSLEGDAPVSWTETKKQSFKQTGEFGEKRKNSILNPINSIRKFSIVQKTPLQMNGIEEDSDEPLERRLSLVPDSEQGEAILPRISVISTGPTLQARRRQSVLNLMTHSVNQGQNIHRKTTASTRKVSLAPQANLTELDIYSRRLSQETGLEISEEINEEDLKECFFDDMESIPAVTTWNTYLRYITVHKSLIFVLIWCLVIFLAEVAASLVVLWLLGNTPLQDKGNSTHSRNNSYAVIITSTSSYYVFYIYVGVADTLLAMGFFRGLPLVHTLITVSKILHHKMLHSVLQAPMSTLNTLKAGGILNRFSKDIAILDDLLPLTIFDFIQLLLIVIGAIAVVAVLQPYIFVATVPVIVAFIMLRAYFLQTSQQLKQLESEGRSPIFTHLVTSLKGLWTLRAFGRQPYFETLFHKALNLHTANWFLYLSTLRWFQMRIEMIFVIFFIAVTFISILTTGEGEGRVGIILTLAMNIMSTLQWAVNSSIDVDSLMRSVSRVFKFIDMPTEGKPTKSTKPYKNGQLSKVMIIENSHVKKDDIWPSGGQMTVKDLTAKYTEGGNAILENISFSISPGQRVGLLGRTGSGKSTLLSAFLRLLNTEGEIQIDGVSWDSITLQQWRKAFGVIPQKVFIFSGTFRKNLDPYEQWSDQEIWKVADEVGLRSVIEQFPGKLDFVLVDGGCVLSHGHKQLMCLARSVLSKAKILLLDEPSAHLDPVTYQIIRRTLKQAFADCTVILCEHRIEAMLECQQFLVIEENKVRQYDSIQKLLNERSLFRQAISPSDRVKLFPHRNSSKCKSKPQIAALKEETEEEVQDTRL

Compound | EC30 [µM]
CCOCCNc1cccc(S(=O)(=O)NC(=O)c2cccnc2N2CC(C)CC2(C)C)n1 (centres unmarked) [Compound 2354, N—[[6-(2-ethoxyethylamino)-2-pyridyl]sulfonyl]-2-(2,2,4-trimethylpyrrolidin-1-yl)pyridine-3-carboxamide] | 3 to 10
Cc1ccc(F)cc1-c1ccc(C(=O)NS(=O)(=O)c2cccnc2N)c(N2C[C@@H](C)CC2(C)C)n1 [Compound 2660, N-[(2-amino-3-pyridyl)sulfonyl]-6-(5-fluoro-2-methyl-phenyl)-2-[(4S)-2,2,4-trimethylpyrrolidin-1-yl]pyridine-3-carboxamide] | < 3
Cc1ccc(-c2ccc(C(=O)NS(=O)(=O)c3ccc[nH]c3=O)c(N3C[C@@H](C)CC3(C)C)n2)c(O)c1 [Compound 2148, 6-(2-hydroxy-4-methyl-phenyl)-N-[(2-oxo-1H-pyridin-3-yl)sulfonyl]-2-[(4S)-2,2,4-trimethylpyrrolidin-1-yl]pyridine-3-carboxamide] | 3 to 10
CC1CN(c2ncccc2C(=O)NS(=O)(=O)c2cccc(OCCc3ccccc3)n2)C(C)(C)C1 (centres unmarked) [Compound 2721] | < 3
C[C@@H]1CN(c2nc(-c3ccc(CO)cc3)ccc2C(=O)NS(=O)(=O)c2cccnc2N)C(C)(C)C1 [Compound 2590, N-[(2-amino-3-pyridyl)sulfonyl]-6-[4-(hydroxymethyl)phenyl]-2-[(4S)-2,2,4-trimethylpyrrolidin-1-yl]pyridine-3-carboxamide] | < 3
CC(=O)Nc1cccc(Nc2cccc(S(=O)(=O)NC(=O)c3cccnc3N3CC(C)CC3(C)C)n2)c1 (centres unmarked) [Compound 2387, N—[[6-(3-acetamidoanilino)-2-pyridyl]sulfonyl]-2-(2,2,4-trimethylpyrrolidin-1-yl)pyridine-3-carboxamide] | 3 to 10
CC(C)Oc1ccccc1-c1ccc(C(=O)NS(=O)(=O)c2ccc[nH]c2=O)c(N2C[C@@H](C)CC2(C)C)n1 [Compound 2541, 6-(2-isopropoxyphenyl)-N-[(2-oxo-1H-pyridin-3-yl)sulfonyl]-2-[(4S)-2,2,4-trimethylpyrrolidin-1-yl]pyridine-3-carboxamide] | < 3
C[C@@H]1CN(c2nc(C(C)(C)C)c(C(O)C(O)C3CCCC3)cc2C(=O)NS(=O)(=O)c2cccc(N)n2)C(C)(C)C1 (single isomer, unassigned) [Compound 2661] | < 3
C[C@@H]1CN(c2nc(-c3ccc(F)c(F)c3)ccc2C(=O)NS(=O)(=O)N2CC[C@H](N)C2)C(C)(C)C1 [Compound 2229, N-[(3S)-3-aminopyrrolidin-1-yl]sulfonyl-6-(3,4-difluorophenyl)-2-[(4S)-2,2,4-trimethylpyrrolidin-1-yl]pyridine-3-carboxamide] | 3 to 10
CC(C)n1cc(-c2ccc(C(=O)NS(=O)(=O)c3cccnc3N)c(N3C[C@@H](C)CC3(C)C)n2)cn1 [Compound 2290, N-[(2-amino-3-pyridyl)sulfonyl]-6-(1-isopropylpyrazol-4-yl)-2-[(4S)-2,2,4-trimethylpyrrolidin-1-yl]pyridine-3-carboxamide] | 3 to 10
CC1CN(c2ncc(-c3ccc(C(F)(F)F)cc3)cc2C(=O)NS(=O)(=O)c2cccc(N)n2)C(C)(C)C1 (centres unmarked) [Compound 2337, N-[(6-amino-2-pyridyl)sulfonyl]-5-[4-(trifluoromethyl)phenyl]-2-(2,2,4-trimethylpyrrolidin-1-yl)pyridine-3-carboxamide] | < 3
CCOc1ccc(-c2ccc(C(=O)NS(=O)(=O)N3CC[C@H](N)C3)c(N3C[C@@H](C)CC3(C)C)n2)cc1 [Compound 2525, N-[(3S)-3-aminopyrrolidin-1-yl]sulfonyl-6-(4-ethoxyphenyl)-2-[(4S)-2,2,4-trimethylpyrrolidin-1-yl]pyridine-3-carboxamide] | 3 to 10
CC1CN(c2ncccc2C(=O)NS(=O)(=O)c2cccc(OCc3c(F)cccc3Cl)n2)C(C)(C)C1 (centres unmarked) [Compound 2717] | < 3
COc1ccc(-c2ccc(C(=O)NS(=O)(=O)c3ccc[nH]c3=O)c(N3C[C@@H](C)CC3(C)C)n2)cc1F [Compound 2219, 6-(3-fluoro-4-methoxy-phenyl)-N-[(2-oxo-1H-pyridin-3-yl)sulfonyl]-2-[(4S)-2,2,4-trimethylpyrrolidin-1-yl]pyridine-3-carboxamide] | 3 to 10
CC1CN(c2ncccc2C(=O)NS(=O)(=O)c2cccc(N(C)CC3CC3)n2)C(C)(C)C1 (centres unmarked) [Compound 2044, N—[[6-[cyclopropylmethyl(methyl)amino]-2-pyridyl]sulfonyl]-2-(2,2,4-trimethylpyrrolidin-1-yl)pyridine-3-carboxamide] | < 3

same assay, conditions: Table 3; compounds of Table 1 as modulators of CFTR activity; protocol not stated

Compound | EC30
COc1cc(F)cc(-c2ccc(C(=O)NS(=O)(=O)c3ccc[nH]c3=O)c(Oc3c(C)cc(C)cc3C)n2)c1 [Compound 652, 6-(3-fluoro-5-methoxy-phenyl)-N-[(2-oxo-1H-pyridin-3-yl)sulfonyl]-2-(2,4,6-trimethylphenoxy)pyridine-3-carboxamide] | ++ (“++” means between 3 uM and 10 uM)
CC(C)COc1cc(F)cc(-c2ccc(C(=O)NS(=O)(=O)c3cccc(N)n3)c(N3CC4CC4C3C(F)(F)F)n2)c1 (centres unmarked) [Compound 490, N-[(6-amino-2-pyridyl)sulfonyl]-6-(3-fluoro-5-isobutoxy-phenyl)-2-[4-(trifluoromethyl)-3-azabicyclo[3.1.0]hexan-3-yl]pyridine-3-carboxamide] | +++ (“+++” means <3 uM)
Cc1cc(C)c(Oc2nc(-c3cccc(CN4CCCCC4)c3)ccc2C(=O)NS(=O)(=O)c2cccc(N)n2)c(C)c1 [Compound 686, N-[(6-amino-2-pyridyl)sulfonyl]-6-[13-(1-piperidylmethyl)phenyl]-2-(2,4,6-trimethylphenoxy)pyridine-3-carboxamide] | +++ (“+++” means <3 uM)
Cc1cccc(C)c1Cn1nc(-c2ccc(N(C)C)cc2)cc1C(=O)NS(=O)(=O)c1ccccc1 [Compound 76, N-(benzenesulfonyl)-5-(4-dimethylaminophenyl)-2-[(2,6-dimethylphenyl)methyl]pyrazole-3-carboxamide] | +++ (“+++” means <3 uM)
CC(c1ccccc1)n1c(C(=O)NS(=O)(=O)c2cccc(N)c2)cc2c(F)cccc21 (centres unmarked) [Compound 186, N-(3-aminophenyl)sulfonyl-4-fluoro-1-(1-phenylethyl)indole-2-carboxamide] | +++ (“+++” means <3 uM)
Cc1cc(C)c(CN2Cc3ccccc3[C@H]2C(=O)NS(=O)(=O)c2cccc(N)c2)c(C)c1 [Compound 126, (1S)—N-(3-aminophenyl)sulfonyl-2-[(2,4,6-trimethylphenyl)methyl]isoindoline-1-carboxamide] | +++ (“+++” means <3 uM)
Cc1cccc(C)c1Cn1nc(-c2ccc(Cl)cc2)cc1C(=O)NS(=O)(=O)c1ccccc1 [Compound 28, N-(benzenesulfonyl)-5-(4-chlorophenyl)-2-[(2,6-dimethylphenyl)methyl]pyrazole-3-carboxamide] | +++ (“+++” means <3 uM)
Cc1cc(C)c(Oc2nc(C(F)(F)F)ccc2C(=O)NS(=O)(=O)c2cccc(N)n2)c(C)c1 [Compound 175, N-[(6-amino-2-pyridyl)sulfonyl]-6-(trifluoromethyl)-2-(2,4,6-trimethylphenoxy)pyridine-3-carboxamide] | ++ (“++” means between 3 uM and 10 uM)
Cc1cc(C)c(Cn2cc(C(C)(C)C)nc2C(=O)NS(=O)(=O)c2cccc(N)c2)c(C)c1 [Compound 255, N-(3-aminophenyl)sulfonyl-4-tert-butyl-1-[(2,4,6-trimethylphenyl)methyl]imidazole-2-carboxamide] | +++ (“+++” means <3 uM)
Cc1cc(C)c(Oc2nc(C(C)(C)C)ccc2C(=O)NS(=O)(=O)c2cncc(N)c2)c(C)c1 [Compound 163, N-[(5-amino-3-pyridyl)sulfonyl]-6-tert-butyl-2-(2,4,6-trimethylphenoxy)pyridine-3-carboxamide] | +++ (“+++” means <3 uM)
C[C@@H]1CC[C@H](C)N1c1nc(-c2ccc(Cl)cc2)ccc1C(=O)NS(=O)(=O)c1cccc(N)n1 [Compound 459, N-[(6-amino-2-pyridyl)sulfonyl]-6-(4-chlorophenyl)-2-[(2S,5R)-2,5-dimethylpyrrolidin-1-yl]pyridine-3-carboxamide] | +++ (“+++” means <3 uM)
Cc1cc(C)c(Cn2c(C(=O)NS(=O)(=O)c3cccc(N)c3)nc3ccccc32)c(C)c1 [Compound 71, N-(3-aminophenyl)sulfonyl-1-[(2,4,6-trimethylphenyl)methyl]benzimidazole-2-carboxamide] | +++ (“+++” means <3 uM)
Cc1cccc(C)c1CN1Cc2ccccc2C1(C)C(=O)NS(=O)(=O)c1cccc(N)n1 (centres unmarked) [Compound 790, N-[(6-amino-2-pyridyl)sulfonyl]-2-[(2,6-dimethylphenyl)methyl]-1-methyl-isoindoline-1-carboxamide] | +++ (“+++” means <3 uM)
Cc1cc(C)c(Oc2nc(C(C)(C)C)ccc2C(=O)NS(=O)(=O)c2cccnc2)c(C)c1 [Compound 330, 6-tert-butyl-N-(3-pyridylsulfonyl)-2-(2,4,6-trimethylphenoxy)pyridine-3-carboxamide] | +++ (“+++” means <3 uM)
Cc1cc(C)c(Oc2nc(C(C)(C)C)ccc2C(=O)NS(=O)(=O)c2nc(N)ccc2F)c(C)c1 [Compound 226, N-[(6-Amino-3-fluoro-2-pyridyl)sulfonyl]-6-tert-butyl-2-(2,4,6-trimethylphenoxy)pyridine-3-carboxamide] | +++ (“+++” means <3 uM)
COc1ncccc1S(=O)(=O)NC(=O)C1c2ccccc2CN1Cc1c(C)cc(C)cc1C (centres unmarked) [Compound 218, N-[(2-methoxy-3-pyridyl)sulfonyl]-2-[(2,4,6-trimethylphenyl)methyl]isoindoline-1-carboxamide] | ++ (“++” means between 3 uM and 10 uM)
CCOc1ccc(-c2ccc(C(=O)NS(=O)(=O)c3cccc(N)n3)c(Oc3ccc(C)cc3C)n2)cc1 [Compound 641, N-[(6-amino-2-pyridyl)sulfonyl]-2-(2,4-dimethylphenoxy)-6-(4-ethoxyphenyl)pyridine-3-carboxamide] | +++ (“+++” means <3 uM)
